Experiments:
[1] = biological target: T1, HLA-A*0201 molecules on T2 cells (Homo sapiens, UniProt P04439, D140Y/D185E/D98H/E176V/E277Q/G131W/G231S/I119V/I121R/I166T/I218V/L300P/L318F/N151K/N90K/P208A/P217A/Q86G/Q94H/R138H/R169H/T345S); experiment: Peptide-binding assay: up-regulation of HLA-A*0201 on T2 cells; conditions: for FI (fluorescence index): 1 × 10^6 T2 cells, 50 μM peptide, serum-free RPMI 1640, β2-microglobulin 3 μg/ml, 16 h, 37 °C, flow cytometry with anti-HLA-A2 Ab (BB7.2) and FITC secondary, mean of triplicate; for affinity to HLA-A2.1 (in words): T2 cells, authors' grading of the Table 2 data
T1 construct: endogenous in cells; host or cells: T2 cells
Procedure: To determine whether the candidate epitopes can bind to HLA-A*0201 molecules, up-regulation of peptide-induced HLA-A*0201 molecules on T2 cells was examined. Briefly, according to previous reference, 1 × 10^6 T2 cells were incubated with 50 μM of the synthesized peptides in serum-free RPMI 1640 medium supplemented with β2-microglobulin (Sigma) at a concentration of 3 μg/ml for 16 h at 37 °C, 5 % CO2 [18]. Expression of HLA-A*0201 on T2 cells was then determined with the FACS Calibur flow cytometer (Becton–Dickinson, USA), by staining with primary anti-HLA-A2 Ab derived from BB7.2 and FITC-labeled goat-antimouse IgG (BD Biosciences Pharmingen, USA) secondary antibody. The data were analyzed using Cell Quest software (Becton–Dickinson, USA). The Fluorescence index (FI) was calculated as follows: FI = (mean FITC fluorescence with the given peptide − mean FITC fluorescence without peptide)/(mean FITC fluorescence without peptide). Samples were measured in triplicate and then mean FI was calculated. An octapeptide mHpa (519–526) ([…]) derived from mouse Hpa was served negative control.

IFN-γ-producing T cells = experiment: IFN-γ ELISPOT assay of peptide-induced effectors; assay type: cell-based; conditions: human HLA-A2+ donor T cells restimulated every 7 days with DCs pulsed with 100 μg/ml peptide; assessed on day 23; triplicate; compared to negative peptide control, P < 0.05
Procedure: (§1) PBMCs were isolated from healthy HLA-A2+ donors by Ficoll–Hypaque density gradient centrifugation (TBC company, Tianjing, China) and then seeded into culture flasks in RPMI-1640 medium supplemented with penicillin (100 U/ml), streptomycin (100 μg/ml), and 10 % FBS. After monocytes adhered (incubation for 2 h), the nonadherent cells were collected and frozen in freeze medium (60 % RPMI-1640 and 30 % FBS, 10 % DMSO) for later use in CTL assays. The adherent cells were cultured for 5 days in RPMI-1640 containing 1,000 U/ml of granulocyte–macrophage colony-stimulating factor (R&D Systems, Inc., Minneapolis, MN) and interleukin-4 (IL-4; R&D Systems, Inc.) and were the cultured for an additional 2 days in the presence of 1,000 U/ml of tumor necrosis factor α (R&D Systems, Inc.) to induce final maturation. After 7 days of culture, the mature DCs were harvested and analyzed for DC typical phenotypes by FACS analysis.
(§2) Briefly, DCs were loaded with different peptides at a final concentration of 100 μg/ml for 4 h and were then irradiated with 20 Gy, which prevented all outgrowths in the control cultures. Autologous T cells were restimulated every 7 days with the previously mentioned peptide-pulsed DCs to generate peptide-specific CTLs. Recombinant interleukin 2 (IL-2) at a concentration of 20 U/ml was added to the culture medium on day 3 after every stimulation. Cytotoxic T lymphocyte activity was then assessed on day 23 by a 4 h ^51Cr release assay. Effectors generated from negative peptide-pulsed DCs were used as controls.
IFN-γ secretion of effectors was assayed by enzyme-linked immunospot (ELISPOT). Multiscreen 96-well assay plates (Dakewe, Shenzhen, China) were precoated overnight at 4 °C with anti-IFN-γ antibody according to the manufacturer’s instruction. After washing with PBST (PBS-0.05 % Tween 20), plates were blocked for 1 h at 37 °C with PBS/1 % BSA. […] After being air-dried, the number of spots in each well was counted using the Bioreader 4000 PRO-X (Bio-Sys; Germany).
Fig. 2 Specific IFN-γ by ELISPOT assay. […] The IFN-γ secretion was then assessed on day 23. […]

[2] = test system: target cells expressing neuritin and HLA-A2.1; experiment: 4-h 51Cr release cytotoxicity assay of CTLs induced in vitro; assay type: cell-based, human; conditions: PBMCs from four HLA-A2.1+ donors stimulated with peptide-pulsed DCs, E/T 25:1, 50:1, 100:1, triplicate
Procedure: as §1, §2
To evaluate the levels of CTL activity, a standard 4-h ^51Cr release assay was used. Briefly, target cells were incubated with ^51Cr (100 μCi per 1 × 10^6 cells) for 2 h in a 37 °C water bath. […] After a 4-h incubation, the supernatants were harvested, and the amount of released ^51Cr was measured with a gamma counter. The percent specific lysis was calculated according to the following formula: […]
Fig. 3 Specific lysis of CTLs against target cells. […] After a 4-h incubation, the supernatants were harvested, and the amount of released ^51Cr was measured with a gamma counter. […]

[3] = test system: neuritin and HLA-A2.1 positive cells; experiment: In vivo immunogenicity: CTLs from immunized mice, 51Cr release assay; conditions: HLA-A*0201/Kb mice, 100 μg peptide in IFA, boosted once a week for three times, splenocytes 7 days after immunization as effectors
Procedure: To evaluate the levels of CTL activity, a standard 4-h ^51Cr release assay was used. Briefly, target cells were incubated with ^51Cr (100 μCi per 1 × 10^6 cells) for 2 h in a 37 °C water bath. After incubation with ^51Cr, target cells were washed three times with PBS, resuspended in RPMI-1640 medium, and mixed with effector cells at a 25:1, 50:1 or 100:1 of effector to target (E/T) ratio. Assays were performed in triplicate for each sample at each ratio in a 96-well round-bottomed plate. After a 4-h incubation, the supernatants were harvested, and the amount of released ^51Cr was measured with a gamma counter. The percent specific lysis was calculated according to the following formula:
Specific lysis = (experimental release − spontaneous release)/(maximal release − spontaneous release) × 100 %
(§3) HLA-A*0201/Kb mice were immunized with 100 μg of various peptides prepared in incomplete Freund’s adjuvant (IFA) and boosted once a week for three times. As a control, mice were injected with an IFA emulsion without peptide. 7 days after immunization, splenocytes from injected animals were cultured and used as effector cells.
as §3, with “Fig. 5 In vivo induction of epitope-specific CTLs in vivo. HLA-A*0201/Kb” for “HLA-A*0201/Kb”, “cells. The cytotoxic activities of CTLs were determined against target cells at various E/T ratios using ^51Cr release assay. […] Compared with controls, P < 0.05” for “cells.”

[4] = biological target: T2, HLA-A*0201/peptide complexes on T2 cells (Homo sapiens, UniProt P04439, D140Y/D185E/D98H/E176V/E277Q/G131W/G231S/I119V/I121R/I166T/I218V/L300P/L318F/N151K/N90K/P208A/P217A/Q86G/Q94H/R138H/R169H/T345S); experiment: Peptide/HLA-A*0201 complex stability on T2 cells; assay type: binding; conditions: authors' grading of the Table 2 data
T2 construct: Expression of HLA-A*0201 on T2 cells was then determined; endogenous in cells; host or cells: T2 cells
Procedure: Briefly, T2 cells (10^6/ml) were incubated overnight with the candidate peptides, respectively, at a concentration of 20 μg/ml in serum-free medium supplemented with β2-microglobulin at a concentration of 3 μg/ml at 37 °C.
Thereafter, they were washed four times to remove free peptides, incubated with Brefeldin A (10 µg/ml) for 1 h to block cell surface expression of newly synthesized HLA-A2.1 molecules, washed and incubated at 37 °C for 0, 2, 4, 6, or 8 h. Subsequently, cells were stained with anti-HLA-A2 antibody from BB7.2 cells to evaluate the HLA-A2.1 molecule expression. For each time point, peptide induced HLA-A*0201 expression was evaluated by the formula mentioned above. Dissociation complex50 (DC50) was defined as the time required for the loss of 50 % of the HLA-A*0201/peptide complexes stabilized at time = 0.

Row | Sequence | FI (fluorescence index) [1] | peptide-specific T cell response (frequency of IFN-γ-producing T cells) (IFN-γ-producing T cells) | induction of neuritin-specific CTLs that lyse target cells [2] | lysis of target cells by CTLs primed in immunized mice [3] | affinity to HLA-A2.1 (in words) [1] | stability to HLA-A2.1 (in words) [4]
1 | FSYGFFVI [mHpa (519–526), reference compound] | 0.38 | – | – | – | – | –
2 | KLNGRYISL [neuritin4–12] | 1.07 | strong peptide-specific T cell response | able to elicit neuritin-specific CTLs | could lyse neuritin and HLA-A2.1 positive cells with high efficiency | moderate | –
3 | LLPAFPVLL [neuritin121–129] | 1.24 | strong peptide-specific T cell response | able to elicit neuritin-specific CTLs | could lyse neuritin and HLA-A2.1 positive cells with high efficiency | moderate | –
4 | ILAVQIAYL [neuritin13–21] | 1.68 | strong peptide-specific T cell response | able to elicit neuritin-specific CTLs | could lyse neuritin and HLA-A2.1 positive cells with high efficiency | high | high
5 | VLLVSLSAA [neuritin127–135] | 0.68 | – | – | – | low | low
